{
  "source": "ChEMBL document CHEMBL4385591",
  "about": "“Structural studies of the binding of an antagonistic cyclic peptide to the VEGFR1 domain 2” (Eur J Med Chem, 2019)",
  "key": {"RF/6A": {"system": "RF/6A", "settings": "Macaca mulatta, 50 uM", "description": "Antiangiogenic activity in rhesus monkey RF/6A cells assessed as inhibition of VEGF-A-induced microtube formation at 50 uM pre-incubated for 15 mins followed by VEGF-A stimulation for 4 hrs by matrigel based capillary tube formation assay"}, "HUVEC": {"system": "HUVEC", "settings": "Homo sapiens, 50 uM", "description": "Antiangiogenic activity in HUVEC cells assessed as inhibition of VEGF-A-induced microtube formation at 50 uM pre-incubated for 15 mins followed by VEGF-A stimulation for 4 hrs by matrigel based capillary tube formation assay"}},
  "note": "Active and inactive are the calls of the source. The rule behind the calls is not given here. Peptide text beside a SMILES is read from it.",
  "data": [
    {"smiles": "CC(C)C[C@@H]1NC(=O)CNC(=O)[C@H](CCC(=O)O)NC(=O)[C@H](CC(=O)O)NC(=O)[C@H](CCCCN)NC(=O)[C@H](Cc2ccc(O)cc2)NC(=O)CC[C@@H](C(=O)NCCc2ccc(O)c(O)c2)NC(=O)[C@H](CCC(=O)O)NC1=O", "note": "(HELM PEPTIDE1{Y.K.D.E.G.L.E.E.[Oc1ccc(CCN[*:1])cc1O]}$PEPTIDE1,PEPTIDE1,1:R1-8:R3$$$V2.0)", "values": [
      {"measurement": "inhibition", "setting": "RF/6A", "result": "Active"},
      {"measurement": "inhibition", "setting": "HUVEC", "result": "Active"}
    ]}
  ]
}
